# Laboratory results taken from patent US10449146B2, “Methods of treating parkinson's disease by administration of apomorphine to an oral mucosa” (Sunovion Pharmaceuticals Inc., priority 2015, dated 2019).
# Read-outs that look alike come from different tables or passages of the source.
# Columns and labels:
# [1] = Plasma apomorphine concentration in Parkinson's patients, minimum effective concentration; format: in vivo, human
# Experimental: A range of doses was used. Over half of the patients needed only the lower two doses (Films J and K), and 80% used Film I, J, or K (FIG. 8; “apomorphine dose” in this Figure indicates the weight of apomorphine hydrochloride in the administered pharmaceutical unit dosage form). […] Eight patients had pharmacokinetic analyses; six of these eight patients have achieved “on” state. Mean plasma apomorphine concentration upon turning on was 2.64 ng/mL for the six patients. […] Responders had large, clinically meaningful UPDRS Part III changes (motor improvement) at all time-points while the non-responders had little motor improvement but not enough to convert from OFF to ON (FIG. 9B).
# [2] = intravenous infusion, subjects having Parkinson's disease; cited from earlier work
structure (smiles),measurement,setting,value
CN1CCc2cccc3c2[C@H]1Cc1ccc(O)c(O)c1-3 [apomorphine],minimum effective concentration,[1]; administered to oral mucosa,about 2.64 ng/mL
same,Mean plasma apomorphine concentration upon turning on,"[1]; six patients who achieved 'on' state, film to oral mucosa",2.64 ng/mL
same,average plasma apomorphine concentration,"[1]; two non-responders, all doses, each time point",< 2.64 ng/mL
same,minimum effective concentration,[2],4.7 ng/mL
